According to patent publication US4104384A, “1-(2'-Aroyl eth-1'yl) 2-(4"-acetamido piperazine-1"yl methyl) benzimidazoles and their therapeutical applications” (priority 1975, dated 1978):

How the values were obtained:
[1] = tested on: bronchoconstriction caused by acetylcholine; experiment: Anticholinergic and antibronchoconstrictive: bronchoconstriction by intravenous acetylcholine, Konzett's method; assay type: in vivo; conditions: Cavia porcellus, guinea-pig, read-out: Percentage inhibition of the bronchoconstriction
Excerpt: Injected intravenously or intraduodenally, the compounds of formula (I) are capable of opposing bronchoconstriction caused in a guinea-pig by intravenous injection of acetylcholine and evaluated by Konzett's method.

[2] = tested on: Shay's ulcer; experiment: Anti-ulcerous properties: ulceration caused by ligature of the pylorus (Shay's ulcers), intraduodenal; assay type: in vivo; conditions: rat, read-out: Percentage reduction of Shay's ulcer; for inhibition in vivo at 10 mg/kg: 10 mg/kg/i.d.; for inhibition in vivo at 7.3 mg/kg: 7.3 mg/kg/i.d.; for inhibition in vivo at 15.5 mg/kg: 15.5 mg/kg/i.d.; for inhibition in vivo at 14.8 mg/kg: 14.8 mg/kg/i.d.
Excerpt: Furthermore, the compounds of formula (I) administered intraduodenally reduce the ulceration area caused by ligature of the pylorus of a rat (Shay's ulcers).

[3] = tested on: gastric secretion; experiment: Gastric antisecretory properties: gastric secretion after Shay ligature, intraduodenal; assay type: in vivo; conditions: rat, read-out: Reduction of volume of gastric secretion; for inhibition in vivo at 1.5 mg/kg: 1.5 mg/kg/i.d.; for inhibition in vivo at 1.6 mg/kg: 1.6 mg/kg/i.d.; for inhibition in vivo at 10 mg/kg: 10 mg/kg/i.d.
Excerpt: Administered intraduodenally to a rat, the compounds of formula (I) are capable of reducing gastric secretion measured after Shay ligature.

[4] = tested on: stress ulcers; experiment: Anti-ulcerous properties: ulcerations in rat under stress for 7 hours, oral; assay type: in vivo; conditions: for inhibition in vivo at 7.7 mg/kg: 7.7 mg/kg/p.o.; for inhibition in vivo at 20 mg/kg: 20 mg/kg/p.o.; for inhibition in vivo at 7.4 mg/kg: 7.4 mg/kg/p.o.
[5] = Acute toxicity, lethal dose 50; conditions: mouse, in vivo, po, read-out: Lethal dose 50 (mouse) / DL 50 (mouse) (converted)
[6] = tested on: painful stretchings; experiment: Analgesic: painful stretchings following intraperitoneal injection of acetic acid; assay type: in vivo; conditions: po, mouse, read-out: Percentage diminution painful stretchings; for inhibition in vivo at 40 mg/kg: 40 mg/kg/p.o.; for inhibition in vivo at 50 mg/kg: 50 mg/kg/p.o.
Excerpt: The compounds of formula (I), administered orally to a mouse, are capable of reducing the number of painful stretchings following intraperitioneal injection of acetic acid.

[7] = tested on: sub-plantar oedema; experiment: Anti-inflammatory: sub-plantar oedema caused by carragenine; assay type: in vivo; conditions: po, rat, read-out: Percentage reduction of sub-plantar oedema; for inhibition in vivo at 50 mg/kg: 50 mg/kg/p.o.
[8] = tested on: jejunal ansa of a rabbit; experiment: Spasmolytic in vivo: contractions of the jejunal ansa caused by electric stimulation
Excerpt: The compounds of formula (I), administered intraduodenally are capable of reducing the contractions of the jejunal ansa of a rabbit, caused by electric stimulation.

[9] = tested on: arterial pressure; experiment: Anti-hypertensive: arterial pressure in genetically hyperstressed vigil rats (S.H.R.); assay type: in vivo, rat; conditions: 150 mg/kg/p.o., 4 hours
Method: The compounds of formula (I) are capable, 4 hours after their oral injection, of bringing the arterial pressure down to normal in genetically hyperstressed vigil rats (S.H.R.).

[10] = po, read-out: Percentage reduction of stress ulcers

O=C(CCn1c(CN2CCN(CC(=O)N3CCCC3)CC2)nc2ccccc21)c1ccccc1 [73 0458, 1-(2'-benzoyleth-1' yl) 2-(4"-pyrrolidinocarbonylmethylpiperazine-1" ylmethyl) benzimidazole]
inhibition in vivo at 100 mg/kg ([1]; intraduodenal, i.d., 100 mg/kg): 67% | inhibition in vivo at 10 mg/kg [2]: 90% | inhibition in vivo at 2 mg/kg ([3]; Rat2, intraduodenal, 2 mg/kg/i.d.): 19% | inhibition in vivo at 5 mg/kg ([4]; po, 5 mg/kg/p.o., read-out: Percentage reduction of stress ulcers): 77%

CCCN(CCC)C(=O)CN1CCN(Cc2nc3ccccc3n2CCC(=O)c2ccccc2)CC1 [74 0196]
inhibition in vivo at 7.3 mg/kg [2]: 90% | LD50 [5]: 2100 mg/kg | inhibition in vivo at 1.5 mg/kg ([3]; intraduodenal): 74% | inhibition in vivo at 7.3 mg/kg ([4]; po, 7.3 mg/kg/p.o., read-out: Percentage reduction of stress ulcers): 88%

CNC(=O)CN1CCN(Cc2nc3ccccc3n2CCC(=O)c2ccccc2)CC1 [74 0145]
inhibition in vivo at 0.5 mg/kg ([1]; iv, i.v., 0.5 mg/kg): 75% | inhibition in vivo at 15.5 mg/kg [2]: 100% | LD50 [5]: 180 mg/kg | inhibition in vivo at 1.6 mg/kg ([3]; intraduodenal): 88% | inhibition in vivo at 10 mg/kg ([6]; 10 mg/kg/p.o.): 70% | inhibition in vivo at 10 mg/kg ([7]; 10 mg/kg/p.o.): 40% | inhibition in vivo at 7.7 mg/kg [4, 10]: 100%

CCNC(=O)CN1CCN(Cc2nc3ccccc3n2CCC(=O)c2ccccc2)CC1 [74 0144]
inhibition in vivo at 4 mg/kg ([1]; iv, i.v.): 100% | Diminution of contractions of the jejunum for more than an hour ([8]; 15.5 mg/kg/i.d.): 43% | inhibition in vivo at 15.5 mg/kg [2]: 98% | LD50 [5]: 310 mg/kg | inhibition in vivo at 1.6 mg/kg ([3]; intraduodenal): 85% | inhibition in vivo at 40 mg/kg [6]: 92% | inhibition in vivo at 30 mg/kg ([7]; 30 mg/kg/p.o.): 35% | inhibition in vivo at 7.7 mg/kg [4, 10]: 99%

NC(=O)CN1CCN(Cc2nc3ccccc3n2CCC(=O)c2ccccc2)CC1 [75 0102]
Diminution of contractions of the jejunum for more than an hour ([8]; 25 mg/kg/i.d.): 80% | inhibition in vivo at 10 mg/kg [2]: 74% | LD50 [5]: 1300 mg/kg | inhibition in vivo at 10 mg/kg ([3]; intraduodenal): 91% | inhibition in vivo at 10 mg/kg ([4]; po, 10 mg/kg/p.o., read-out: Percentage reduction of stress ulcers): 100%

Cc1ccc(C(=O)CCn2c(CN3CCN(CC(=O)NC(C)C)CC3)nc3ccccc32)cc1 [75 0009]
inhibition in vivo at 20 mg/kg ([2]; 20 mg/kg/i.d.): 56% | LD50 [5]: 1800 mg/kg | inhibition in vivo at 10 mg/kg ([3]; intraduodenal): 62% | inhibition in vivo at 20 mg/kg [4, 10]: 90%

COc1cccc(C(=O)CCn2c(CN3CCN(CC(=O)NC(C)C)CC3)nc3ccccc32)c1 [75 0010]
inhibition in vivo at 40 mg/kg ([2]; 40 mg/kg/i.d.): 86% | LD50 [5]: 1200 mg/kg | inhibition in vivo at 25 mg/kg ([3]; intraduodenal, 25 mg/kg/i.d.): 82% | inhibition in vivo at 20 mg/kg [4, 10]: 77%

O=C(CCn1c(CN2CCN(CC(=O)N3CCCCCC3)CC2)nc2ccccc21)c1ccccc1 [74 0195]
inhibition in vivo at 25 mg/kg ([1]; intraduodenal, i.d., 25 mg/kg): 60% | Diminution of contractions of the jejunum of a rabbit ([8]; 14.2 mg/kg/i.d.): 30% | inhibition in vivo at 14.2 mg/kg ([2]; 14.2 mg/kg/i.d.): 86% | LD50 [5]: > 2000 mg/kg | inhibition in vivo at 50 mg/kg [6]: 53% | inhibition in vivo at 7.1 mg/kg ([4]; po, 7.1 mg/kg/p.o., read-out: Percentage reduction of stress ulcers): 59%

O=C(CN1CCN(Cc2nc3ccccc3n2CCC(=O)c2ccccc2)CC1)NC1CCCC1 [74 0751]
inhibition in vivo at 10 mg/kg [2]: 89% | LD50 [5]: 1100 mg/kg | inhibition in vivo at 4.5 mg/kg ([3]; intraduodenal, 4.5 mg/kg/i.d.): 69% | ED50 ([4]; oral, read-out: DE 50, stress ulcers): 11 mg/kg

CC(C)NC(=O)CN1CCN(Cc2nc3ccccc3n2CCC(=O)c2ccc(Cl)cc2)CC1 [75 0012]
inhibition in vivo at 10 mg/kg [2]: 73% | LD50 [5]: 1300 mg/kg | inhibition in vivo at 10 mg/kg ([3]; intraduodenal): 63% | inhibition in vivo at 20 mg/kg [4, 10]: 64%

CC(C)CNC(=O)CN1CCN(Cc2nc3ccccc3n2CCC(=O)c2ccccc2)CC1 [74 0187]
inhibition in vivo at 5 mg/kg ([1]; iv, i.v.): 100% | inhibition in vivo at 14.8 mg/kg [2]: 94% | LD50 [5]: 1600 mg/kg | inhibition in vivo at 1.5 mg/kg ([3]; intraduodenal): 78% | inhibition in vivo at 50 mg/kg [6]: 42% | inhibition in vivo at 50 mg/kg [7]: 47% | inhibition in vivo at 7.4 mg/kg [4, 10]: 100%

CCCNC(=O)CN1CCN(Cc2nc3ccccc3n2CCC(=O)c2ccccc2)CC1 [74 0159]
inhibition in vivo at 5 mg/kg ([1]; iv, i.v.): 100% | inhibition in vivo at 15.1 mg/kg ([2]; 15.1 mg/kg/i.d.): 100% | LD50 [5]: 1250 mg/kg | inhibition in vivo at 1.5 mg/kg ([3]; intraduodenal): 77% | inhibition in vivo at 50 mg/kg [6]: 40% | inhibition in vivo at 50 mg/kg [7]: 57% | inhibition in vivo at 7.5 mg/kg ([4]; po, 7.5 mg/kg/p.o., read-out: Percentage reduction of stress ulcers): 100% | inhibition in vivo at 7.6 mg/kg ([4]; po, 7.6 mg/kg/p.o., read-out: Percentage reduction of stress ulcers): 100%

CCCCNC(=O)CN1CCN(Cc2nc3ccccc3n2CCC(=O)c2ccccc2)CC1 [74 0186]
inhibition in vivo at 2 mg/kg ([1]; iv, i.v., 2 mg/kg): 100% | inhibition in vivo at 14.8 mg/kg [2]: 75% | LD50 [5]: 360 mg/kg | inhibition in vivo at 1.5 mg/kg ([3]; intraduodenal): 67% | inhibition in vivo at 40 mg/kg [6]: 77% | inhibition in vivo at 40 mg/kg ([7]; 40 mg/kg/p.o.): 48% | inhibition in vivo at 7.4 mg/kg [4, 10]: 98%

CCN(CC)C(=O)CN1CCN(Cc2nc3ccccc3n2CCC(=O)c2ccccc2)CC1 [74 0184]
inhibition in vivo at 4 mg/kg ([1]; iv, i.v.): 100% | Diminution of contractions of the jejunum for more than an hour ([8]; 14.9 mg/kg/i.d.): 39% | inhibition in vivo at 7.4 mg/kg ([2]; 7.4 mg/kg/i.d.): 100% | LD50 [5]: 1300 mg/kg | inhibition in vivo at 1.5 mg/kg ([3]; intraduodenal): 77% | inhibition in vivo at 50 mg/kg [6]: 63% | inhibition in vivo at 50 mg/kg [7]: 65% | inhibition in vivo at 7.4 mg/kg [4, 10]: 100%

C[N+]1(C)CCC(=C(c2ccccc2)c2ccccc2)CC1 [Diphemanil, diphemanil (methylsulfate), reference compound]
Diminution of contractions of the jejunum of a rabbit ([8]; 20 mg/kg/i.d.): 70% | LD50 [5]: 317 mg/kg | inhibition in vivo at 50 mg/kg ([3]; intraduodenal, 50 mg/kg/i.d.): 52% | inhibition in vivo at 100 mg/kg ([4]; po, 100 mg/kg/p.o., ratio equal to 315, read-out: Percentage reduction of stress ulcers): 91%

CC(C)NC(=O)CN1CCN(Cc2nc3ccccc3n2CCC(=O)c2ccc([N+](=O)[O-])cc2)CC1 [74 0747]
arterial pressure brought down to normal [9]: 4 animals out of 7 | LD50 [5]: 2200 mg/kg

CN(C)C(=O)CN1CCN(Cc2nc3ccccc3n2CCC(=O)c2ccccc2)CC1 [74 0180]
inhibition in vivo at 5 mg/kg ([1]; iv, i.v.): 100% | Diminution of contractions of the jejunum for more than an hour ([8]; 15.4 mg/kg/i.d.): 50% | inhibition in vivo at 7.7 mg/kg ([2]; 7.7 mg/kg/i.d.): 94% | LD50 [5]: 716 mg/kg | inhibition in vivo at 1.5 mg/kg ([3]; intraduodenal): 86% | inhibition in vivo at 50 mg/kg [6]: 53% | inhibition in vivo at 50 mg/kg [7]: 47% | inhibition in vivo at 7.7 mg/kg [4, 10]: 100%

CC(C)N(C(=O)CN1CCN(Cc2nc3ccccc3n2CCC(=O)c2ccccc2)CC1)C(C)C [74 0453]
inhibition in vivo at 2.5 mg/kg ([1]; iv, i.v., 2.5 mg/kg): 100% | inhibition in vivo at 7.3 mg/kg [2]: 82% | LD50 [5]: 1000 mg/kg

O=C(CCn1c(CN2CCN(CC(=O)N3CCOCC3)CC2)nc2ccccc21)c1ccccc1 [74 0160]
inhibition in vivo at 15 mg/kg ([2]; 15 mg/kg/i.d.): 99% | LD50 [5]: 1700 mg/kg | inhibition in vivo at 1.5 mg/kg ([3]; intraduodenal): 45% | inhibition in vivo at 50 mg/kg [7]: 50% | inhibition in vivo at 6 mg/kg ([4]; po, 6 mg/kg/p.o., read-out: Percentage reduction of stress ulcers): 76%
